Assays:
[1] = molecular target: Cyclin-dependent kinase 2 (Homo sapiens, UniProt P24941); assay: Inhibition of CDK2 (unknown origin) using ULight 4EBP1 peptide as substrate incubated for 2 hrs in presence of ATP by FRET assay
MV4-11 [2] = assay: Antiproliferative activity against human MV4-11 cells incubated for 72 hrs by celltiter-glo luminescent assay; details: MV4-11, 72 h
CESS = assay: Antiproliferative activity against human CESS cells incubated for 72 hrs by celltiter-glo luminescent assay
Rec1 = assay: Antiproliferative activity against human REC1 cells incubated for 72 hrs by celltiter-glo luminescent assay; details: Rec1, 72 h
KG-1 = assay: Antiproliferative activity against human KG-1 cells incubated for 72 hrs by celltiter-glo luminescent assay; details: KG-1, 72 h
PC-9 = assay: Antiproliferative activity against human PC-9 cells incubated for 72 hrs by celltiter-glo luminescent assay; details: PC-9, 72 h
HT-29 = assay: Antiproliferative activity against human HT-29 cells incubated for 72 hrs by celltiter-glo luminescent assay; details: HT-29, 72 h
A549 = assay: Antiproliferative activity against human A549 cells incubated for 72 hrs by celltiter-glo luminescent assay; type: functional, cell-based; details: A549, 72 h
[3] = molecular target: Cyclin-dependent kinase 9 (Homo sapiens, UniProt P50750)
Description: Inhibition of CDK9 (unknown origin) using ULight 4EBP1 peptide as substrate incubated for 2 hrs in presence of ATP by FRET assay

[4] = molecular target: Cyclin-dependent kinase 7 (Homo sapiens, UniProt P50613)
Description: Inhibition of CDK7 (unknown origin) using ULight 4EBP1 peptide as substrate incubated for 2 hrs in presence of ATP by FRET assay

Histone deacetylase 4 = Histone deacetylase 4 (Homo sapiens, UniProt P56524); assay: Inhibition of human recombinant HDAC4 using Ac-Leu-Gly-Lys(Tfa)-AMC as substrate incubated for 24 hrs by fluorescence based Envision plate reader analysis
Histone deacetylase 3 = Histone deacetylase 3 (Homo sapiens, UniProt O15379)
Histone deacetylase 1 = Histone deacetylase 1 (Homo sapiens, UniProt Q13547)
Description: Inhibition of human recombinant HDAC1 using Ac-Lys-Tyr-Lys(eta-acetyl)-AMC as substrate incubated for 24 hrs by fluorescence based Envision plate reader analysis

[5] = molecular target: Protein deacetylase HDAC6 (Homo sapiens, UniProt Q9UBN7)
Description: Inhibition of human recombinant HDAC6 using Boc-Lys(eta-acetyl)-AMC as substrate incubated for 24 hrs by fluorescence based Envision plate reader analysis

[6] = molecular target: Receptor-type tyrosine-protein kinase FLT3 (Homo sapiens, UniProt P36888); assay: Inhibition of FLT3 (unknown origin)
[7] = molecular target: Serine/threonine-protein kinase Chk1 (Homo sapiens, UniProt O14757); assay: Inhibition of CHK1 (unknown origin)
[8] = molecular target: Tyrosine-protein kinase JAK3 (Homo sapiens, UniProt P52333); assay: Inhibition of JAK3 (unknown origin)
[9] = molecular target: Serine/threonine-protein kinase pim-1 (Homo sapiens, UniProt P11309); assay: Inhibition of PIM1 (unknown origin)
[10] = molecular target: Epidermal growth factor receptor (Homo sapiens, UniProt P00533); assay: Inhibition of EGFR (unknown origin)
[11] = molecular target: Serine/threonine-protein kinase 17B (Homo sapiens, UniProt O94768); assay: Inhibition of DRAK2 (unknown origin)
[12] = molecular target: Ribosomal protein S6 kinase beta-1 (Homo sapiens, UniProt P23443); assay: Inhibition of P70S6K (unknown origin)
Aurora kinase A = Aurora kinase A (Homo sapiens, UniProt O14965); assay: Inhibition of AurorA (unknown origin)
[13] = molecular target: Interleukin-1 receptor-associated kinase 4 (Homo sapiens, UniProt Q9NWZ3); assay: Inhibition of IRAK4 (unknown origin)
[14] = molecular target: Tyrosine-protein kinase BTK (Homo sapiens, UniProt Q06187); assay: Inhibition of BTK (unknown origin)
MV4-11 [15] = assay: Antitumor activity against human MV4-11 cells xenografted in female nu/nu mouse assessed as test to control ratio at 50 mg/kg, sc bid for 19 days; type: functional; details: time 19 day

Cyclin-dependent kinase 9, sequence (P50750 whole entry): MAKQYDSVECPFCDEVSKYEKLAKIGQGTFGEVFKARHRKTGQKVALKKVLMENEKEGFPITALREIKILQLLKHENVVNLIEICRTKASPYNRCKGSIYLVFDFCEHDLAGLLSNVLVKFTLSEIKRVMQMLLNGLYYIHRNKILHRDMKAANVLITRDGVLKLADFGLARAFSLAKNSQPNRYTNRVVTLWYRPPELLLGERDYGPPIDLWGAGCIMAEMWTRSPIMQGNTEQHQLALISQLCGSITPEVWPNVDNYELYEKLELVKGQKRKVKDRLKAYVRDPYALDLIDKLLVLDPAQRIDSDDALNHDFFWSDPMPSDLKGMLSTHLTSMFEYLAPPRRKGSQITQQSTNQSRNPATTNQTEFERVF
Histone deacetylase 4, sequence (P56524 whole entry): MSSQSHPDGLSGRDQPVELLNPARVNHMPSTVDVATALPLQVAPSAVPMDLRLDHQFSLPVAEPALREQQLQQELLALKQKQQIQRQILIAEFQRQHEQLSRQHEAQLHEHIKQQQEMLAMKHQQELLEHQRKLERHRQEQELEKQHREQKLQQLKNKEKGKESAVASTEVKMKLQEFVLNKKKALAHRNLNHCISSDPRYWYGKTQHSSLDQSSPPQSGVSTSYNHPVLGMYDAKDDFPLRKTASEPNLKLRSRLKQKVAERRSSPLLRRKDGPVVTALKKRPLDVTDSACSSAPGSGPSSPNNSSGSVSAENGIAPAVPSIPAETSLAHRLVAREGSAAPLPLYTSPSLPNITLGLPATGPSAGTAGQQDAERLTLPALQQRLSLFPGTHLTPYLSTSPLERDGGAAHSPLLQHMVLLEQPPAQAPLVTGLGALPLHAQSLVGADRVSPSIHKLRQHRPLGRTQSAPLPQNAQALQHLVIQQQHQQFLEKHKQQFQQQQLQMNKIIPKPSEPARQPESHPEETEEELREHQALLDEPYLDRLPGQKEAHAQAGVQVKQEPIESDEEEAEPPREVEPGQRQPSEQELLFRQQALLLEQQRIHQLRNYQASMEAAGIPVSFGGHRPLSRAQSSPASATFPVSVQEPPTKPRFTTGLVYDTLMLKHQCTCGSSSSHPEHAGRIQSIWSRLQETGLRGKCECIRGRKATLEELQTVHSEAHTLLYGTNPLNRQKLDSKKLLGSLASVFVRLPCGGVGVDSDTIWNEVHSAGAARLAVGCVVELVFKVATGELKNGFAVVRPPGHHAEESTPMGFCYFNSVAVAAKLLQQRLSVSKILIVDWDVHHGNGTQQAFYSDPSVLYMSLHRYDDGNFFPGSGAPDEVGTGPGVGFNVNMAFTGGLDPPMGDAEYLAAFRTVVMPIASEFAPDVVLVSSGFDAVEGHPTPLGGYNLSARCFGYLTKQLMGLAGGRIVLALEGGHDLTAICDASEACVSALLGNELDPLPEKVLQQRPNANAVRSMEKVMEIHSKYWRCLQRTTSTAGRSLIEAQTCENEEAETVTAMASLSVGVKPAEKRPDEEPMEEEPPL
Cyclin-dependent kinase 7, sequence (P50613 whole entry): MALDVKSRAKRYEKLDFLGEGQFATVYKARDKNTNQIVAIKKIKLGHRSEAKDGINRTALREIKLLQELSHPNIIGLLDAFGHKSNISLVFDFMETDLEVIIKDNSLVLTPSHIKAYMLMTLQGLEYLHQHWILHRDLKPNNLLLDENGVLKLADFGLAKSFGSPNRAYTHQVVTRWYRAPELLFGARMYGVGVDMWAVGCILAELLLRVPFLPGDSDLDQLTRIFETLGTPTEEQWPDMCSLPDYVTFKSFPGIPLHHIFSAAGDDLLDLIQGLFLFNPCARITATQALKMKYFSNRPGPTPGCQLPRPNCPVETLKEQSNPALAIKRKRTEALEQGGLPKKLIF
Serine/threonine-protein kinase 17B, sequence (O94768 whole entry): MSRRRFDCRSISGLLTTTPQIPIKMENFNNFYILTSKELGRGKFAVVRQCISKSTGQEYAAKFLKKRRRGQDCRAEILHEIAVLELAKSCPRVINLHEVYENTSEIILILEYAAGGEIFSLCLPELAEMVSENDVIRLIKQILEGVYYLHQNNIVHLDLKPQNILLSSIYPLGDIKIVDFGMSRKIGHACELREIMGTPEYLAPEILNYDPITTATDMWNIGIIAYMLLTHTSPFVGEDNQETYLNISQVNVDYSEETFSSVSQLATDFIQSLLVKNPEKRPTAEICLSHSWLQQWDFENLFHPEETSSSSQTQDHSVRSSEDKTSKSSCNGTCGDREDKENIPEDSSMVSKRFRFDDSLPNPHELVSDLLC
Aurora kinase A, sequence (O14965 whole entry): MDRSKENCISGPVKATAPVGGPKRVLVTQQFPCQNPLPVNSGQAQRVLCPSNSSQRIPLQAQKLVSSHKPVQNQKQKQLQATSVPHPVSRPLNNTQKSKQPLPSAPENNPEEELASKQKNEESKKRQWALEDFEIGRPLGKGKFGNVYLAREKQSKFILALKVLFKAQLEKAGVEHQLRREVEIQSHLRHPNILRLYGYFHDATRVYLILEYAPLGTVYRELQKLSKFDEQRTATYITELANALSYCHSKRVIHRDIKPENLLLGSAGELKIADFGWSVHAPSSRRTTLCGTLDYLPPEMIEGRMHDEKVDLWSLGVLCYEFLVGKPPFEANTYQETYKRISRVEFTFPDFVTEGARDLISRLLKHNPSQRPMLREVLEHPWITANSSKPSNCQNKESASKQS
Histone deacetylase 1, sequence (Q13547 whole entry): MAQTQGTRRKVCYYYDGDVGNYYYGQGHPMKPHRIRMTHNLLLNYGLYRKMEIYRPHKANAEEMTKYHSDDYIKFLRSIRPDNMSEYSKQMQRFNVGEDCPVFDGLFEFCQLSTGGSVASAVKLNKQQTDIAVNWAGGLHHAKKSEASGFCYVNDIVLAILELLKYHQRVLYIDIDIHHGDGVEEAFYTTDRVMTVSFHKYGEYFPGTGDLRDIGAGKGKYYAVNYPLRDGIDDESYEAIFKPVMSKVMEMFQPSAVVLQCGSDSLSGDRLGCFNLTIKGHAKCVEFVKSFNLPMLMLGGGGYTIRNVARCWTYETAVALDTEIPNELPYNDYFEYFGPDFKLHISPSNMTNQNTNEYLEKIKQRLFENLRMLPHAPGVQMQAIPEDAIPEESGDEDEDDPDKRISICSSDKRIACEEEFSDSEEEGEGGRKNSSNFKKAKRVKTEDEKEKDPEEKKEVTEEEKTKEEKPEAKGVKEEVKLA
Tyrosine-protein kinase JAK3, sequence (P52333 whole entry): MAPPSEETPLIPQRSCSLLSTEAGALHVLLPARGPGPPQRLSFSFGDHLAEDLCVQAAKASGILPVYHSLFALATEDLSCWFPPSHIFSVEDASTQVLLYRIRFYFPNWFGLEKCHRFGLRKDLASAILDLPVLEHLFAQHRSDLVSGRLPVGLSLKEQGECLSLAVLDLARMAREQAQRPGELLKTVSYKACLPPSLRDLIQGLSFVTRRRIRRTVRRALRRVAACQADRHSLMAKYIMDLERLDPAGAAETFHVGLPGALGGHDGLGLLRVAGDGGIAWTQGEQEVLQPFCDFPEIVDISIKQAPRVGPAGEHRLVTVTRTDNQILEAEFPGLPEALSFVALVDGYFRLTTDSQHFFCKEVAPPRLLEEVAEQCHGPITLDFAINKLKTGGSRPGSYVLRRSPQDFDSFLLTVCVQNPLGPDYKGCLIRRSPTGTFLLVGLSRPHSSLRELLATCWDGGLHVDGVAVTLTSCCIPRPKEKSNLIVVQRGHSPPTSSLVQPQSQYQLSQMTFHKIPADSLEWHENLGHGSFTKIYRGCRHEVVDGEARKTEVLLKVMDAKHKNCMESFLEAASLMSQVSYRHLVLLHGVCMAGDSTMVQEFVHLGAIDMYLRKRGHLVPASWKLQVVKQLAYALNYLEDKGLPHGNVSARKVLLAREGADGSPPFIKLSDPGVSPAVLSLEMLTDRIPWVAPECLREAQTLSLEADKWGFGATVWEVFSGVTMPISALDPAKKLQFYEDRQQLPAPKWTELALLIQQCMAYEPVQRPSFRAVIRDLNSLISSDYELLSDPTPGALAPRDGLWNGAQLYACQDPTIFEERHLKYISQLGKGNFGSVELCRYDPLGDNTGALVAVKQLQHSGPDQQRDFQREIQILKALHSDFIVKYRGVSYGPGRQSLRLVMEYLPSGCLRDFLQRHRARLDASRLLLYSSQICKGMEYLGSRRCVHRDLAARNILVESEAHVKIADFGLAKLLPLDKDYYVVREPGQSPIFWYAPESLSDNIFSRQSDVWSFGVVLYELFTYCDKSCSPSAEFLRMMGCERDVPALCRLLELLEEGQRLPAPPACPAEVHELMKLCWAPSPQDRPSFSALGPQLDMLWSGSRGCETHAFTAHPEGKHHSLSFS
Serine/threonine-protein kinase pim-1, sequence (P11309 whole entry): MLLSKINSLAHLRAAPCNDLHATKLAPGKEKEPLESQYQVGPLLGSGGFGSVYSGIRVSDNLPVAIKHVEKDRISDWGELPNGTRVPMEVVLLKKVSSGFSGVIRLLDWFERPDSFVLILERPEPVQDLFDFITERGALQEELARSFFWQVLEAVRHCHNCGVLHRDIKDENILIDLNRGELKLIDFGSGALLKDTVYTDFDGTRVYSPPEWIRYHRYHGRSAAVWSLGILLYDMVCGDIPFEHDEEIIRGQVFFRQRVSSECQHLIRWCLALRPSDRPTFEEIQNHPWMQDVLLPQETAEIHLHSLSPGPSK
Ribosomal protein S6 kinase beta-1, sequence (P23443 whole entry): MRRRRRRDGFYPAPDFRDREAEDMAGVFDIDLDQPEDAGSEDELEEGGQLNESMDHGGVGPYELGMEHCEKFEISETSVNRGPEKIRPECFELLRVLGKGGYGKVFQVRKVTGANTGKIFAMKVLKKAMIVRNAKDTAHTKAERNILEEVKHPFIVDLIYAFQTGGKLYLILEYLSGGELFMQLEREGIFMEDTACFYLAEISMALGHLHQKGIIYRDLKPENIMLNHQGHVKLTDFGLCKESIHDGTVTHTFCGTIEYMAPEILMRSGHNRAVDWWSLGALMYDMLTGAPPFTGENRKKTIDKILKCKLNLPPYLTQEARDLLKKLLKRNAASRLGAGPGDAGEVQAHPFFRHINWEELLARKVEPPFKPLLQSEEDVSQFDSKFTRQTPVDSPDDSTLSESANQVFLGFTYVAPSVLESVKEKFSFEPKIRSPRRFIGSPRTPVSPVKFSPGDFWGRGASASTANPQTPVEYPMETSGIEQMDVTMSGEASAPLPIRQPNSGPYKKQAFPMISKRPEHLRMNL

Work on `COC[C@@H](C)N[C@H]1CC[C@H](Nc2cc(-c3cccc(NCC4(C#N)CCOCC4)n3)c(Cl)cn2)CC1` yielded an IC50 [1] of over 10 µM, an IC50 (MV4-11 [2]) of 0.003 µM and an IC50 (CESS) of 0.01 µM. The IC50 (Rec1) was 0.03 µM, the IC50 (KG-1) was 0.02 µM and the IC50 (PC-9) was 0.03 µM. It also gave an IC50 (HT-29) of 0.02 µM, an IC50 (A549) of 5.78 µM and an IC50 [3] of 0.0041 µM. For the same molecule, the IC50 [4] was over 10 µM.
Molecule `COc1cc(F)ccc1-c1cc(Nc2ccc(NC(=O)CCCCCCC(=O)Nc3ccccc3N)cc2)ncc1F` has an IC50 (Histone deacetylase 4) of over 20 µM and an IC50 [4] of over 10 µM.
`CCCNNC(=O)c1ccc(Cn2cc(Nc3ncc(Cl)c(-c4cnc5ccc(-c6ccccc6)cn45)n3)cn2)cc1` was tested, and the IC50 [1] was over 10 µM, the IC50 (Histone deacetylase 4) was over 20 µM and the IC50 [4] was over 10 µM.
Molecule `O=C(/C=C/c1ccc(Nc2ncc(Cl)c(OC3CCCCC3)n2)cc1)NO` has an IC50 (Histone deacetylase 3) of 7.21 µM, an IC50 [3] of 7.89 µM and an IC50 (Histone deacetylase 1) of over 10 µM. It also gave an IC50 [5] of 0.646 µM.
For `COc1cc(F)ccc1-c1cc(Nc2ccc(/C=C/C(=O)Nc3ccccc3N)cc2)ncc1F`, the IC50 (Histone deacetylase 3) was 3.55 µM, the IC50 [3] was 0.0684 µM and the IC50 (Histone deacetylase 1) was over 20 µM. It also gave an IC50 [5] of over 20 µM.
For `N#CC1(CNc2cccc(-c3cc(Nc4cnn(Cc5ccc(C(=O)Nc6ccccc6N)cc5)c4)ncc3Cl)n2)CCOCC1`, the IC50 (Histone deacetylase 4) was over 20 µM, the IC50 [6] was over 10 µM and the IC50 [7] was over 10 µM. The IC50 [8] was over 10 µM, the IC50 [9] was over 10 µM and the IC50 [10] was over 10 µM. The IC50 [11] was over 10 µM, the IC50 [12] was over 10 µM and the IC50 (Aurora kinase A) was over 10 µM. The IC50 [13] was over 10 µM and the IC50 [14] was over 10 µM.
For `O=C(CCCCCn1cc(Nc2ncc(Cl)c(-c3cnc4ccccn34)n2)cn1)NO`, the IC50 (Histone deacetylase 4) was over 10 µM and the IC50 [4] was 0.566 µM.
In the case of `CCCNNC(=O)CCCCCn1cc(Nc2ncc(Cl)c(-c3cnc4ccccn34)n2)cn1`, the IC50 [1] is reported as over 10 µM, the IC50 (Histone deacetylase 4) is reported as over 20 µM and the IC50 [4] is reported as over 10 µM.
`N#CC1(CNc2cccc(-c3cc(Nc4cnn(CCCCCCC(=O)Nc5ccccc5N)c4)ncc3Cl)n2)CCOCC1` gave an IC50 (Histone deacetylase 4) of over 20 µM and an IC50 [4] of over 10 µM.
In the case of `COc1cc(F)ccc1-c1cc(Nc2ccc(NC(=O)CCCCCCC(=O)NO)cc2)ncc1F`, the IC50 (Histone deacetylase 4) is reported as over 10 µM and the IC50 [4] is reported as over 10 µM.
With `COc1cc(F)ccc1-c1cc(Nc2cnn(CCCCCCC(=O)NO)c2)ncc1F` the IC50 (Histone deacetylase 4) was over 10 µM and the IC50 [4] was over 10 µM.
In the case of `COc1cc(F)ccc1-c1cc(Nc2cnn(CCCCCC(=O)NO)c2)ncc1F`, the IC50 (Histone deacetylase 4) is reported as over 10 µM and the IC50 [4] is reported as over 10 µM.
Molecule `CCCNNC(=O)CCCCCCn1cc(Nc2ncc(Cl)c(-c3cnc4ccccn34)n2)cn1` has an IC50 [1] of over 10 µM, an IC50 (Histone deacetylase 4) of over 20 µM and an IC50 [4] of over 10 µM.
With `N#CC1(CNc2cccc(-c3cc(Nc4cnn(Cc5ccc(C(=O)NO)cc5)c4)ncc3Cl)n2)CCOCC1` the IC50 (Histone deacetylase 4) was 1.08 µM and the IC50 [4] was over 10 µM.
With `CCCNNC(=O)c1ccc(Cn2cc(Nc3ncc(Cl)c(-c4cnc5ccccn45)n3)cn2)cc1` the IC50 (Histone deacetylase 4) was over 20 µM, the IC50 [6] was 0.0304 µM and the IC50 [7] was over 10 µM. For the same molecule, the IC50 [8] was 2.38 µM, the IC50 [9] was over 10 µM and the IC50 [10] was over 10 µM. The IC50 [11] was over 10 µM, the IC50 [12] was 0.371 µM and the IC50 (Aurora kinase A) was over 10 µM. It also gave an IC50 [13] of over 10 µM, an IC50 [14] of 9.13 µM and an IC50 [4] of 0.973 µM.
`O=C(CCCCCCn1cc(Nc2ncc(Cl)c(-c3cnc4ccccn34)n2)cn1)NO` showed an IC50 (Histone deacetylase 4) of over 10 µM and an IC50 [4] of 2.81 µM.
With `CCCNNC(=O)CCCCCn1cc(Nc2ncc(Cl)c(-c3cnc4ccc(-c5ccccc5)cn34)n2)cn1` the IC50 (Histone deacetylase 4) was over 20 µM and the IC50 [4] was over 10 µM.
Molecule `N#CC1(CNc2cccc(-c3cc(Nc4cnn(CCCCCC(=O)NO)c4)ncc3Cl)n2)CCOCC1` has an IC50 (Histone deacetylase 4) of 2.5 µM and an IC50 [4] of over 10 µM.
Work on `N#CC1(CNc2cccc(-c3cc(Nc4cnn(CCCCCCC(=O)NO)c4)ncc3Cl)n2)CCOCC1` yielded an IC50 (Histone deacetylase 4) of 4.4 µM and an IC50 [4] of over 10 µM.
`Nc1ccn([C@@H]2O[C@H](CO)[C@@H](O)[C@@H]2O)c(=O)n1` [CYTARABINE] was tested, and the T/C (MV4-11 [15]) was 33.41%.
For `O=C(CCCCCCC(=O)Nc1ccccc1)NO` [VORINOSTAT], the IC50 (KG-1) was 0.79 µM.

Reference: ChEMBL document CHEMBL5584345, “Discovery of Novel 2-Aminopyridine-Based and 2-Aminopyrimidine-Based Derivatives as Potent CDK/HDAC Dual Inhibitors for the Treatment of Refractory Solid Tumors and Hematological Malignancies” (J Med Chem, 2024)
